In US6737383B1, “Herbicidal oxadiazolidines” (priority 1999, dated 2004):

Assays:
Conditions in all cases: Preemergence
rape = assay: Test B pre/postemergence rape; type: in vivo, Brassica napus
Procedure, shortened: (§1)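 Test chemicals in a non-phytotoxic solvent mixture with surfactant were sprayed preemergence onto planted seeds and postemergence onto plants 2 to 18 cm tall (1- to 4-leaf stage). After twelve to sixteen days in a greenhouse, injury was visually rated against untreated controls from 0 (no effect) to 10 (complete control).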

wheat = assay: Test B pre/postemergence wheat; type: in vivo, Triticum aestivum
Procedure, shortened: as §1

blackgrass = assay: Test B pre/postemergence blackgrass; type: in vivo, Alopecurus myosuroides
Procedure, shortened: as §1

pigweed = assay: Test B pre/postemergence pigweed; type: in vivo, Amaranthus retroflexus
Procedure, shortened: as §1

surinam grass = assay: Test B pre/postemergence surinam grass; type: in vivo, Brachiaria decumbens
Procedure, shortened: as §1

morningglory = assay: Test B pre/postemergence morningglory; type: in vivo, Ipomoea hederacea
Procedure, shortened: as §1

giant foxtail = assay: Test B pre/postemergence giant foxtail; type: in vivo, Setaria faberii
Procedure, shortened: as §1

sugar beet = assay: Test B pre/postemergence sugar beet; type: in vivo, Beta vulgaris
Procedure, shortened: as §1

cocklebur = assay: Test B pre/postemergence cocklebur; type: in vivo, Xanthium strumarium
Procedure, shortened: as §1

corn = assay: Test B pre/postemergence corn; type: in vivo, Zea mays
Procedure, shortened: as §1

bedstraw = assay: Test B pre/postemergence bedstraw; type: in vivo, Galium aparine
Procedure, shortened: as §1

crabgrass = assay: Test B pre/postemergence crabgrass; type: in vivo, Digitaria sanguinalis
Procedure, shortened: as §1

wild oat = assay: Test B pre/postemergence wild oat; type: in vivo, Avena fatua
Procedure, shortened: as §1

soybean = assay: Test B pre/postemergence soybean; type: in vivo, Glycine max
Procedure, shortened: as §1

velvetleaf = assay: Test B pre/postemergence velvetleaf; type: in vivo, Abutilon theophrasti
Procedure, shortened: as §1

purple nutsedge = assay: Test B pre/postemergence purple nutsedge; type: in vivo, Cyperus rotundus
Procedure, shortened: as §1

[1] = Rate 62 g/ha, scale of 0 to 10 where 0 is no effect and 10 is complete control
[2] = Rate 125 g/ha, scale of 0 to 10 where 0 is no effect and 10 is complete control
[3] = Rate 250 g/ha, scale 0 (no effect) to 10 (complete control)
[4] = Rate 500 g/ha, scale 0 to 10 (0 no effect, 10 complete control)

CC(C)N(C(=O)n1oc(=O)n(C(C)C2=NOCC2)c1=O)c1ccc(F)cc1F (racemic) [Compound 730]
2: Rape plant response rating (rape; [3]) | Morningglory plant response rating (morningglory; [4]) | Plant response rating, Sugarbeets (sugar beet; [2]) | Soybean plant response rating (soybean; [3]) | Plant response rating, Velvetleaf (velvetleaf; [2])
0: Rape plant response rating (rape; [1]) | Plant response rating, Rape (rape; [2]) | Wheat plant response rating (wheat; [1]) | Plant response rating, Wheat (wheat; [2]) | Wheat plant response rating (wheat; [3]) | Wheat plant response rating (wheat; [4]) | B. signalgrass plant response rating (surinam grass; [1]) | Plant response rating, B. signalgrass (surinam grass; [2]) | Morningglory plant response rating (morningglory; [1]) | Plant response rating, Morningglory (morningglory; [2]) | Morningglory plant response rating (morningglory; [3]) | Sugarbeets plant response rating (sugar beet; [1]) | Cocklebur plant response rating (cocklebur; [1]) | Plant response rating, Cocklebur (cocklebur; [2]) | Cocklebur plant response rating (cocklebur; [3]) | Cocklebur plant response rating (cocklebur; [4]) | Corn plant response rating (corn; [1]) | Bedstraw plant response rating (bedstraw; [1]) | Plant response rating, Bedstraw (bedstraw; [2]) | Bedstraw plant response rating (bedstraw; [3]) | Wild oats plant response rating (wild oat; [1]) | Soybean plant response rating (soybean; [1]) | Plant response rating, Soybean (soybean; [2]) | Velvetleaf plant response rating (velvetleaf; [1]) | Nutsedge plant response rating (purple nutsedge; [1]) | Plant response rating, Nutsedge (purple nutsedge; [2])
9: Plant response rating, Blackgrass (blackgrass; [2]) | Plant response rating, Redroot pigweed (pigweed; [2]) | B. signalgrass plant response rating (surinam grass; [4]) | Corn plant response rating (corn; [4]) | Crabgrass plant response rating (crabgrass; [1]) | Plant response rating, Crabgrass (crabgrass; [2]) | Crabgrass plant response rating (crabgrass; [3]) | Wild oats plant response rating (wild oat; [4])
3: Plant response rating, Corn (corn; [2]) | Soybean plant response rating (soybean; [4]) | Nutsedge plant response rating (purple nutsedge; [3]) | Nutsedge plant response rating (purple nutsedge; [4])
7: Rape plant response rating (rape; [4]) | B. signalgrass plant response rating (surinam grass; [3]) | Sugarbeets plant response rating (sugar beet; [4]) | Wild oats plant response rating (wild oat; [3])
10: Blackgrass plant response rating (blackgrass; [3]) | Blackgrass plant response rating (blackgrass; [4]) | Redroot pigweed plant response rating (pigweed; [3]) | Redroot pigweed plant response rating (pigweed; [4]) | Giant foxtail plant response rating (giant foxtail; [1]) | Plant response rating, Giant foxtail (giant foxtail; [2]) | Giant foxtail plant response rating (giant foxtail; [3]) | Giant foxtail plant response rating (giant foxtail; [4]) | Crabgrass plant response rating (crabgrass; [4])
4: Sugarbeets plant response rating (sugar beet; [3]) | Corn plant response rating (corn; [3]) | Bedstraw plant response rating (bedstraw; [4]) | Plant response rating, Wild oats (wild oat; [2])
6: Blackgrass plant response rating (blackgrass; [1]) | Redroot pigweed plant response rating (pigweed; [1]) | Velvetleaf plant response rating (velvetleaf; [3]) | Velvetleaf plant response rating (velvetleaf; [4])
